Data from US10717777B2, “Synthetic lung surfactant with enhanced stability and effectiveness” (The Lundquist Institute for Biomedical Innovation at …, priority 2015, dated 2020).

Test: Surface activity by captive bubble surfactometry (quasi-static cycling)
Type: physicochemical
Settings: FIG. 2; B-YL, B-LYL, B-AYL at 3% in 5:3:2 (wt:wt:wt) DPPC:POPC:POPG; S-MB, S-MB-DATK, MB-DATK added for comparison
Protocol: In this example, surface activity of the various peptides disclosed in the present disclosure were measured in mixtures of peptides and lipids using captive bubble surfactometry.
This example used peptide concentrations of 2-4% and a lipid mixture consisting of 5:3:2 (wt:wt:wt) DPPC:POPC:POPG. Lipids only were used a negative control and the clinical surfactant Infasurf™ as a positive control.
Low surface tension equals high surface activity.
Minimum tension values during the first 10 cycles of quasi-static cycling on the captive bubble surfactometer are compared with those of lipids only.
FIG. 2 compares 3% of B-YL (SEQ ID NO: 27), B-LYL (SEQ ID NO: 28) and B-AYL (SEQ ID NO: 29) in 5:3:2 (wt:wt:wt) DPPC:POPC:POPG with lipids only (negative control) and the clinical surfactant Infasurf™ (positive control). For comparison the minimum surface tension values of Super Mini-B (S-MB), Super Mini-B-DATK (S-MB-DATK) and Mini-B-DATK (MB-DATK) have been added to the figure.

Sequence	Surface activity (minimum surface tension) as compared to the negative control (lipids only)
FPIPLPYCWLCRALIKRIQAMIDATKRMLPQLVCRLVLRCS [Super Mini-B-DATK, Super Mini-B analog with DATK turn, added for comparison]	excellent surface activity
FPIPLPYCWLCRALIKRIQAMIPKGGRMLPQLVCRLVLRCS [Super Mini-B]	excellent surface activity
FPIPLPYLWLYRALIKRIQALIPKGGRLLPQLVYRLVLRLS [B-LYL]	excellent surface activity
FPIPLPYYWLYRALIKRIQALIPKGGRLLPQLVYRLVLRYS [B-YL]	excellent surface activity
CWLCRALIKRIQAMIDATKRMLPQLVCRLVLRCS [Mini-B-DATK, Mini-B analog with DATK turn, added for comparison]	excellent surface activity
